In PubChem BioAssay (NCI) one finds TGI data, which are given here for 13 compounds.

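Test compounds were applied to cells in 96-well plates for 48 hours at 5 doses. TGI: concentration producing complete growth inhibition.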

Test systems include SW-620 colon; SK-MEL-28 melanoma; NCI-H23 lung; U251 CNS; HCT-15 colon; IGROV1 ovarian; A498 renal; UO-31 renal; MOLT-4 leukemia; CCRF-CEM leukemia; UACC-257 melanoma; SF-295 CNS; HOP-62 NSCLC; ACHN renal; OVCAR-4 ovarian; LOX IMVI melanoma; SK-OV-3 ovarian; CAKI-1 renal.
Common to all, as to experiment: NCI tumour cell line growth inhibition, 48 h

In the case of `COC(=O)CC(C(C(=O)OCc1ccccc1)C(C)O)N1C(=O)OCC1c1ccccc1` (configuration not stated), the TGI in the experiment with SW-620 colon, with SK-MEL-28 melanoma, in the experiment on NCI-H23 lung, in the experiment on U251 CNS, in the experiment on HCT-15 colon and with IGROV1 ovarian was more than 100 µM in each case. In addition, the TGI in the experiment on A498 renal was more than 100 µM; in the experiment with UO-31 renal, 90.6 µM; in the experiment with MOLT-4 leukemia, more than 100 µM; with CCRF-CEM leukemia it was more than 100 µM; in the experiment with UACC-257 melanoma, more than 100 µM; in the experiment on SF-295 CNS it was more than 100 µM. In addition, the TGI with HOP-62 NSCLC, in the experiment on ACHN renal, with OVCAR-4 ovarian and in the experiment with LOX IMVI melanoma was more than 100 µM each time.

On to `COC1CC(O[C@H]2CC[C@@]3(C)C(=CCC4(O)C3CCC35C(=O)OC6(C)O[C@@]43CCC65)C2)OC(C)C1O` (some centres not stated), for which the TGI with SK-MEL-28 melanoma, in the experiment with NCI-H23 lung, in the experiment with U251 CNS, in the experiment on HCT-15 colon, with IGROV1 ovarian and in the experiment with A498 renal was more than 100 µM throughout. Also, the TGI in the experiment with UO-31 renal, with MOLT-4 leukemia, with CCRF-CEM leukemia, with UACC-257 melanoma, in the experiment on SF-295 CNS and in the experiment on HOP-62 NSCLC was more than 100 µM each time. Besides, the TGI in the experiment with ACHN renal, in the experiment on OVCAR-4 ovarian, in the experiment on SK-OV-3 ovarian and with CAKI-1 renal was more than 100 µM each time.

Consider `C=CCC1(CN(C)C)CC/C(=C\c2cc(OC)c(OC)c(OC)c2)C1=O` (configuration not stated), for which the TGI was 33.6 µM in the experiment with SW-620 colon; more than 100 µM with SK-MEL-28 melanoma; more than 100 µM in the experiment on NCI-H23 lung; 59.5 µM with U251 CNS; 35.2 µM with HCT-15 colon; 74.6 µM with IGROV1 ovarian. The TGI is 79 µM in the experiment on A498 renal; 77 µM with UO-31 renal; 78.8 µM in the experiment on MOLT-4 leukemia; 51.9 µM with CCRF-CEM leukemia; 58.3 µM with UACC-257 melanoma; 92.8 µM in the experiment with SF-295 CNS. The TGI is more than 100 µM in the experiment with HOP-62 NSCLC; 70.8 µM with ACHN renal; 50.4 µM in the experiment on OVCAR-4 ovarian; more than 100 µM in the experiment on CAKI-1 renal; 43 µM with LOX IMVI melanoma.

`CO/S(=N/S(=O)(=O)c1ccccc1)c1ccccc1[N+](=O)[O-]` (configuration not stated): the TGI in the experiment on SW-620 colon, in the experiment with SK-MEL-28 melanoma, in the experiment with NCI-H23 lung, with U251 CNS, with HCT-15 colon and in the experiment on IGROV1 ovarian was more than 100 µM throughout. The TGI in the experiment on UO-31 renal, in the experiment on MOLT-4 leukemia, in the experiment with CCRF-CEM leukemia, with UACC-257 melanoma, in the experiment on SF-295 CNS and in the experiment on HOP-62 NSCLC was more than 100 µM throughout. Also, the TGI with ACHN renal, in the experiment on OVCAR-4 ovarian, with SK-OV-3 ovarian, in the experiment with CAKI-1 renal and in the experiment on LOX IMVI melanoma was more than 100 µM each time.

In the case of `CC(C)(Oc1ccc2c(=O)cc(-c3ccc(Cl)cc3)oc2c1)C(=O)Nc1c(Cl)cccc1Cl`, the TGI with SW-620 colon, with SK-MEL-28 melanoma, in the experiment with NCI-H23 lung, with U251 CNS, in the experiment on HCT-15 colon and in the experiment with IGROV1 ovarian was more than 100 µM in each case. For the same compound, the TGI in the experiment on A498 renal, with UO-31 renal, in the experiment on MOLT-4 leukemia, with CCRF-CEM leukemia, with UACC-257 melanoma and in the experiment on SF-295 CNS was more than 100 µM in each case. Further, the TGI in the experiment with HOP-62 NSCLC, in the experiment on SK-OV-3 ovarian, in the experiment with CAKI-1 renal and in the experiment on LOX IMVI melanoma was more than 100 µM each time.

Take `COc1ccc(C2=NN(C(C)=O)c3nc4ccccc4nc3O2)cc1`: the TGI in the experiment with SW-620 colon was more than 100 µM; in the experiment with SK-MEL-28 melanoma, more than 100 µM; in the experiment on NCI-H23 lung it was more than 100 µM; with U251 CNS, 61.8 µM; in the experiment with HCT-15 colon it was more than 100 µM; with IGROV1 ovarian, 27.4 µM. Also, the TGI in the experiment on UO-31 renal is 90.4 µM; in the experiment with MOLT-4 leukemia, more than 100 µM; in the experiment with CCRF-CEM leukemia it was more than 100 µM; in the experiment on UACC-257 melanoma it was more than 100 µM; in the experiment on SF-295 CNS, more than 100 µM; with HOP-62 NSCLC it was 64 µM. The TGI was more than 100 µM in the experiment with ACHN renal and 98.4 µM in the experiment on OVCAR-4 ovarian.

Consider `COC(=O)C(/C(=N/N)C(=O)Nc1cc(Cl)ccc1Cl)c1nc2ccc([N+](=O)[O-])cc2[nH]c1=O` (configuration not stated), for which the TGI in the experiment with SW-620 colon, in the experiment on SK-MEL-28 melanoma, with NCI-H23 lung, in the experiment on U251 CNS, in the experiment on HCT-15 colon and in the experiment on IGROV1 ovarian was more than 100 µM each time. Besides, the TGI with A498 renal, in the experiment with UO-31 renal, with MOLT-4 leukemia, with CCRF-CEM leukemia, in the experiment with UACC-257 melanoma and with SF-295 CNS was more than 100 µM throughout. Moreover, the TGI in the experiment with HOP-62 NSCLC, in the experiment with ACHN renal, with OVCAR-4 ovarian, with SK-OV-3 ovarian and with LOX IMVI melanoma was more than 100 µM throughout.

Consider `Cc1ccc([N+](=O)[O-])cc1NC(=O)C(=O)Cc1nc2ccc(C(=O)c3ccccc3)cc2[nH]c1=O`, for which the TGI in the experiment with SW-620 colon, with SK-MEL-28 melanoma, in the experiment with NCI-H23 lung, with HCT-15 colon, in the experiment with IGROV1 ovarian and in the experiment on UO-31 renal was more than 100 µM in each case. Further, the TGI in the experiment on MOLT-4 leukemia, in the experiment with CCRF-CEM leukemia, with UACC-257 melanoma, with SF-295 CNS, in the experiment with HOP-62 NSCLC and in the experiment on ACHN renal was more than 100 µM in each case. Further, the TGI in the experiment on OVCAR-4 ovarian, with SK-OV-3 ovarian, with CAKI-1 renal and in the experiment with LOX IMVI melanoma was more than 100 µM in each case.

In the case of `O=C(/C=C/c1ccc(-c2ccccc2)cc1)c1ccccc1`, the TGI with SW-620 colon worked out at 42.7 µM; with SK-MEL-28 melanoma, 67.5 µM; with NCI-H23 lung, 41.8 µM; with U251 CNS, 58.5 µM; in the experiment with HCT-15 colon, 54.9 µM; with IGROV1 ovarian, 69.1 µM. The TGI is 45.7 µM in the experiment on A498 renal; more than 100 µM with UO-31 renal; more than 100 µM with MOLT-4 leukemia; more than 100 µM with CCRF-CEM leukemia; more than 100 µM in the experiment with UACC-257 melanoma; more than 100 µM with SF-295 CNS. Further, the TGI was more than 100 µM in the experiment with ACHN renal; more than 100 µM in the experiment on OVCAR-4 ovarian; 58.5 µM in the experiment with SK-OV-3 ovarian; more than 100 µM in the experiment with CAKI-1 renal; 29.2 µM with LOX IMVI melanoma.

Regarding `CC(=O)NNc1ncc(C(=O)/C=C/c2ccccc2C)s1`, the TGI with SW-620 colon, with SK-MEL-28 melanoma, in the experiment on NCI-H23 lung, in the experiment with U251 CNS, in the experiment with IGROV1 ovarian and with A498 renal was more than 100 µM in each case. Moreover, the TGI in the experiment on UO-31 renal, in the experiment with MOLT-4 leukemia, with CCRF-CEM leukemia, with UACC-257 melanoma, with SF-295 CNS and with HOP-62 NSCLC was more than 100 µM in each case. Besides, the TGI in the experiment on ACHN renal, with SK-OV-3 ovarian, in the experiment with CAKI-1 renal and in the experiment with LOX IMVI melanoma was more than 100 µM throughout.

`CON1C(=O)C2(CCCCC2)C(=O)C12C=CC(C)CC2` (configuration not stated): the TGI in the experiment on SW-620 colon, with SK-MEL-28 melanoma, with NCI-H23 lung, in the experiment with U251 CNS, with HCT-15 colon and in the experiment on IGROV1 ovarian was more than 100 µM throughout. The TGI in the experiment with A498 renal, with UO-31 renal, in the experiment with MOLT-4 leukemia, in the experiment on CCRF-CEM leukemia, with UACC-257 melanoma and in the experiment on SF-295 CNS was more than 100 µM in each case. For the same compound, the TGI in the experiment with HOP-62 NSCLC, with SK-OV-3 ovarian, in the experiment on CAKI-1 renal and in the experiment on LOX IMVI melanoma was more than 100 µM throughout.

As for `O=C(NC1CCCCC1)NC12CC3CC(CC(F)(C3)C1)C2`, the TGI in the experiment with SW-620 colon, with SK-MEL-28 melanoma, in the experiment with NCI-H23 lung, in the experiment with U251 CNS, with IGROV1 ovarian and in the experiment on A498 renal was more than 100 µM throughout. Besides, the TGI with UO-31 renal, with MOLT-4 leukemia, in the experiment on CCRF-CEM leukemia, in the experiment with UACC-257 melanoma, in the experiment on HOP-62 NSCLC and with ACHN renal was more than 100 µM in each case. The TGI in the experiment on SK-OV-3 ovarian and with LOX IMVI melanoma was more than 100 µM throughout.

As for `OC(c1cc2ccccc2[nH]1)C(O)(c1cc2ccccc2[nH]1)c1cc2ccccc2[nH]1` (configuration not stated), the TGI in the experiment with SW-620 colon was 43.1 µM; in the experiment on SK-MEL-28 melanoma, 55.1 µM; in the experiment with NCI-H23 lung, 21 µM; in the experiment on U251 CNS, 78.4 µM; in the experiment on HCT-15 colon, 33 µM; in the experiment on IGROV1 ovarian, 47.9 µM. Also, the TGI is more than 245 µM with MOLT-4 leukemia; more than 245 µM in the experiment on CCRF-CEM leukemia; 64.6 µM with UACC-257 melanoma; 31.3 µM in the experiment with SF-295 CNS; 48.3 µM in the experiment on HOP-62 NSCLC; 50.1 µM in the experiment with ACHN renal. Further, the results for the TGI in the experiment on SK-OV-3 ovarian, with CAKI-1 renal and with LOX IMVI melanoma were 79.1 µM, 51.9 µM and 41.8 µM, respectively.
